Test results from ChEMBL document CHEMBL4402556, “Mycobacterium tuberculosis Decaprenylphosphoryl-β-d-ribose Oxidase Inhibitors: Expeditious Reconstruction of Suboptimal Hits into a Series with Potent in Vivo Activity” (J Med Chem, 2020).
Converted amounts (≈) assume the structure as drawn.

Legend:
[1] = test system: Mycobacterium tuberculosis; test: Antitubercular activity against wild type Mycobacterium tuberculosis H37Rv ATCC 25618 assessed as bacterial growth inhibition measured after 6 days by resazurin assay; type: functional; conditions: H37Rv ATCC 25618, 144 h
[2] = Kinetic aqueous solubility of the compound in phosphate buffer saline at pH 7.4 after 1 hr by CLND method; type: physicochemical; conditions: phosphate buffered saline, read-out: Kinetic_solubility
[3] = Inhibition of Mycobacterium tuberculosis DprE1 expressed in Escherichia coli BL21 (DE3) using farnesylphosphoryl-beta-D-ribose as substrate
[4] = Solubility of the compound in FaSSIF; type: physicochemical
[5] = test system: Mycobacterium tuberculosis; test: Antitubercular activity against wild type Mycobacterium tuberculosis H37Rv ATCC 25618 transfected with pATB45luc plasmid expressing luciferase infected in human THP1 cells assessed as reduction in bacterial growth after 4 days by BrightGlo luciferase assay; type: functional; conditions: H37Rv ATCC 25618, 96 h
[6] = test system: Mycobacterium tuberculosis; test: Antibacterial activity against Mycobacterium tuberculosis transfected with pMV261 vector expressing DprE1 assessed as bacterial growth inhibition; type: functional
[7] = Clearance in CD-1 mouse at 1 mg/kg, iv administered as single dose measured up to 24 hrs by LC-MS/MS analysis; type: ADME, organism-based; conditions: in vivo
HepG2 = test: Cytotoxicity against human HepG2 cells assessed as reduction in cell viability measured after 48 hrs by CellTiter-Glo assay; type: cell-based; conditions: HepG2, 48 h
[8] = Volume of distribution at steady state in CD-1 mouse at 1 mg/kg, iv administered as single dose measured up to 24 hrs by LC-MS/MS analysis; type: ADME, organism-based; conditions: in vivo, read-out: Vdss
[9] = Oral bioavailability in CD-1 mouse at 5 mg/kg administered as single dose measured up to 24 hrs by LC-MS/MS analysis; type: ADME, organism-based; conditions: in vivo
[10] = Half life in CD-1 mouse at 1 mg/kg, iv administered as single dose measured up to 24 hrs by LC-MS/MS analysis; type: ADME, organism-based; conditions: in vivo
[11] = test system: Mycobacterium tuberculosis; test: Antitubercular activity against Mycobacterium tuberculosis H37Rv infected in po dosed C57BL/6 mouse model of acute infection assessed as reduction in mycobacterial burden in lung administration for 8 consecutive days starting from day 1 post-infection and measured after 24 hrs post-last dose; type: functional
Escherichia coli = test: Antibacterial activity against Escherichia coli assessed as bacterial growth inhibition; type: functional
Staphylococcus aureus = test: Antibacterial activity against Staphylococcus aureus assessed as bacterial growth inhibition; type: functional

Structure (SMILES)	MIC90 [1] [µM]	pIC50 [3]	also measured
CC1CCN(C(=O)C2CCN(c3cc(N4CCCCC4)ncn3)CC2)CC1	15.6 (≈ 5.8 µg/mL)	6.5	solubility kinetic at 1 h [2]: > 488 µM
CCN(CC)CCC1CCN(C(=O)C2CCN(c3cc(N4CCOCC4)ncn3)CC2)CC1	> 125	< 4	
O=C(C1CCN(c2cc(N3CCOCC3)[nH]c(=O)n2)CC1)N1CCC(Cc2ccccc2)CC1	3 (≈ 1.4 µg/mL)	7.4	
O=C(C1CCN(c2cc(N3CCOCC3)ncn2)CC1)N1CCc2ccccc2C1	10 (≈ 4.08 µg/mL)	6.5	
O=C(C1CCN(c2cc(N3CCOCC3)ncn2)CC1)N1CCC(Oc2ccc(Cl)cc2F)CC1	0.5 (≈ 0.252 µg/mL)	7.7	
CC1CCN(C(=O)C2CCN(c3cc(N4CCOCC4)ncn3)CC2)CC1	15.6 (≈ 5.83 µg/mL)	6	
c1nc(N2CCCCCC2)cc(N2CCOCC2)n1		< 4	
O=C(C1CCN(c2cc(N3CCOCC3)ncn2)CC1)N1CCC(Oc2ccc(F)cc2)CC1	1.7 (≈ 0.798 µg/mL)	7.3	solubility [4]: 74 µM (≈ 34.7 µg/mL); MIC90 [5]: 0.62 µM (≈ 0.291 µg/mL); MIC90 [6]: 62 µM (≈ 29.1 µg/mL); clearance [7]: 23.5 mL/min/kg; IC50 (HepG2): 31.6 µM; Vd [8]: 1.7 L/kg; bioavailability [9]: 78.7%; half-life [10]: 60 min; solubility kinetic at 1 h [2]: ≥ 364 µM; ED99 [11]: 29 mg/kg
CC(C)C1CCN(C(=O)C2CCN(c3cc(N4CCOCC4)ccn3)CC2)CC1	> 125	5.2	
O=c1nc(N2CCOCC2)cc(N2CCCCC2)[nH]1		4.5	
O=C(C1CCN(c2cc(N3CCOCC3)ncn2)CC1)N1CCC(CC2CCCC2)CC1	3 (≈ 1.32 µg/mL)	7.6	
c1nc(N2CCCCC2)cc(N2CCCCC2)n1		4.1	
O=C(C1CCN(c2cc(N3CCOCC3)ncn2)CC1)N1CCN(c2ccc(F)cc2)CC1	20 (≈ 9.09 µg/mL)	6.2	
O=C(C1CCN(c2nccc(N3CCCCC3)n2)CC1)N1CCC(Cc2ccccc2)CC1	16 (≈ 7.16 µg/mL)	6.8	
O=C(C1CCN(c2cc(N3CCOCC3)ncn2)CC1)N1CCCCC1Cc1ccccc1 (stereo not drawn)	125 (≈ 56.2 µg/mL)	5.4	
CC(C)C1CCN(C(=O)C2CCN(c3ccnc(N4CCOCC4)c3)CC2)CC1	> 125	5.1	
CC1CCN(C(=O)C2CCN(c3nnc(-n4cccc4)s3)CC2)CC1	20.8 (≈ 7.48 µg/mL)	6.3	solubility kinetic at 1 h [2]: 328 µM (≈ 118 µg/mL)
CCC1CCN(C(=O)C2CCN(c3cc(N4CCOCC4)ncn3)CC2)CC1	8 (≈ 3.1 µg/mL)	6.8	
O=C(C1CCN(c2cncc(N3CCOCC3)n2)CC1)N1CCC(Cc2ccccc2)CC1	3 (≈ 1.35 µg/mL)	7.4	
O=C(C1CCN(c2cc(N3CCCCC3)ncn2)CC1)N1CCCCC1	35.6 (≈ 12.7 µg/mL)	5.8	solubility kinetic at 1 h [2]: > 405 µM
CC1CCN(C(=O)C2CCN(c3cc(NC4CCCC4)ncn3)CC2)CC1	> 125	4.7	
c1nc(N2CCOCC2)cc(N2CCC3(CCCO3)CC2)n1		4.1	
Cc1ccc(OC2CCN(C(=O)C3CCN(c4cc(N5CCOCC5)ncn4)CC3)CC2)nc1	16 (≈ 7.47 µg/mL)	6.2	
CN(C)c1cc(N2CCCCC2)ncn1		3.9	
FC1(F)CCN(c2cc(N3CCOCC3)ncn2)C1		4.1	
CC(=O)N1CCC(C(=O)N2CCC(C)CC2)CC1		< 3	
O=C(C1CCN(c2cc(N3CCOCC3)ncn2)CC1)N1CCC(Cc2ccccn2)CC1	8.8 (≈ 3.97 µg/mL)	6.6	
O=C(C1CCN(c2cc(N3CCOCC3)ncn2)CC1)N1CCC(O)(Cc2ccccc2)CC1	10 (≈ 4.66 µg/mL)	5.8	

Structure (SMILES)	MIC90 [1] [µM]	pIC50 [3]	also measured
Nc1nc(N2CCOCC2)cc(N2CCC(C(=O)N3CCC(Cc4ccccc4)CC3)CC2)n1	3.5 (≈ 1.63 µg/mL)	7.3	
CN1CCN(c2cc(N3CCC(C(=O)N4CCC(Cc5ccccc5)CC4)CC3)ncn2)CC1	125 (≈ 57.8 µg/mL)	4.7	
CC1CCN(C(=O)C2CCN(c3cc(N4CCCC4)ncn3)CC2)CC1	23.4 (≈ 8.37 µg/mL)	5.9	
CC1CCN(C(=O)C2CCN(c3cc(N(C)C)ncn3)CC2)CC1	125 (≈ 41.4 µg/mL)	5	
O=C(c1ccc(F)cc1)N1CCN(C(=O)C2CCN(c3cc(N4CCOCC4)ncn3)CC2)CC1	> 80	4.6	
CC(=O)N1CCN(c2cc(N3CCOCC3)ncn2)CC1		< 4	
O=C(C1CCN(c2cc(N3CCOCC3)ncn2)CC1)N1CCC(Oc2ccc(F)cc2F)CC1	1 (≈ 0.488 µg/mL)	7.5	
CC(C)C1CCN(C(=O)C2CCN(c3cc(N4CCOCC4)ncn3)CC2)CC1	4 (≈ 1.61 µg/mL)	7.1	
O=C(C1CCN(c2nnc(-n3cccc3)s2)CC1)N1CCC(Cc2ccccc2)CC1	4 (≈ 1.74 µg/mL)	7.3	solubility kinetic at 1 h [2]: < 1 µM
O=C(C1CCN(c2cc(N3CCOCC3)ncn2)CC1)N1CCCC(Cc2ccccc2)C1 (stereo not drawn)	32 (≈ 14.4 µg/mL)	6.2	
O=C(C1CCN(c2cc(N3CCOCC3)ncn2)CC1)N1CCC(Cc2ccccc2)C1 (stereo not drawn)	4 (≈ 1.74 µg/mL)	6.9	
CC(C)C1CCN(C(=O)C2CCN(c3cccc(N4CCOCC4)n3)CC2)CC1	> 125	5	
CC(C)N(C)c1cc(N2CCOCC2)ncn1		< 4	
O=C(C1CCN(c2ccncn2)CC1)N1CCC(Cc2ccccc2)CC1	> 125	4.8	
O=C(C1CCN(c2ncnc(N3CCOCC3)c2F)CC1)N1CCC(Cc2ccccc2)CC1	1.3 (≈ 0.608 µg/mL)	7.2	
O=C(C1CCN(c2cc(N3CCOCC3)ncn2)CC1)N1CCC(Cc2ccccc2)CC1	0.6 (≈ 0.27 µg/mL)	7.6	MIC (Escherichia coli): > 128 µg/mL; MIC (Staphylococcus aureus): > 128 µg/mL; MIC90 [5]: 0.07 µM (≈ 0.0315 µg/mL); MIC90 [6]: > 16 µM; solubility kinetic at 1 h [2]: 280 µM (≈ 126 µg/mL)
CC(=O)N1CCC(C(=O)N2CCC(Cc3ccccc3)CC2)CC1		< 4	
CC1(C)CCCN(c2cc(N3CCOCC3)ncn2)C1		4.6	
O=C(C1CCN(c2cc(N3CCCCC3)ncn2)CC1)N1CCC(Cc2ccccc2)CC1	2.5 (≈ 1.12 µg/mL)	7.1	solubility kinetic at 1 h [2]: 28 µM (≈ 12.5 µg/mL)
O=C(C1CCN(c2cc(N3CCOCC3)ncn2)CC1)N1CCC(Cc2cccnc2)CC1	3.3 (≈ 1.49 µg/mL)	7	
O=C(C1CCN(c2cc(N3CCOCC3)ncn2)CC1)N1CCC(Oc2ccc(Cl)cc2)CC1	1.5 (≈ 0.729 µg/mL)	7.5	
O=C(C1CCN(c2cc(N3CCOCC3)ncn2)CC1)N1CCC(Oc2ccccc2)CC1	2 (≈ 0.903 µg/mL)	8.1	
O=C(C1CCN(c2cc(N3CCOCC3)ncn2)CC1)N1CCC(CCN2CCCC2)CC1	> 125	4.1	
c1nc(N2CCCCC2)cc(N2CCOCC2)n1		4.1	
O=C(C1CCN(c2cc(N3CCOCC3)ncn2)CC1)N1CCC(Cc2ccc(F)cc2)CC1	0.6 (≈ 0.281 µg/mL)	7.6	solubility [4]: 40 µM (≈ 18.7 µg/mL); MIC90 [5]: 0.21 µM (≈ 0.0982 µg/mL); MIC90 [6]: 15 µM (≈ 7.01 µg/mL); clearance [7]: 38.9 mL/min/kg; IC50 (HepG2): 50.1 µM; Vd [8]: 1.3 L/kg; bioavailability [9]: 100%; half-life [10]: 27 min; solubility kinetic at 1 h [2]: 160 µM (≈ 74.8 µg/mL); ED99 [11]: 30 mg/kg
O=C(C1CCN(c2cc(N3CCOCC3)ncn2)CC1)N1CCC(Nc2ccccc2)CC1	10 (≈ 4.51 µg/mL)	6.4	
O=C(C1CCN(c2cc(N3CCOCC3)ncn2)CC1)N1CCOC(Cc2ccccc2)C1 (stereo not drawn)	> 125	5.2	
